Tested on: therapieresistenter chronischer Sensibilitätsstörungen an Armen und Händen mit Verlust der rohen Kraft
Assay: Treatment of therapy-resistant chronic sensory disturbances of arms and hands with loss of strength
Format: in vivo, Patienten

## CCN(CC)CC(=O)Nc1c(C)cccc1C [Lidocain]
2 to 4 deep paravertebral injections, middle or lower cervical spine, 0,1 Gew.-%
  Remission der Kraftlosigkeit: Spontane Remission
After further identical treatment sessions
  Remission der Sensibilitätsstörungen: vollständig nach zwei bis vier weiteren identisch reproduzierten Behandlungssitzungen

Reference: EP2323645B1, “USE OF LOW-DOSE LOCAL ANAESTHETIC OR DERIVATIVES THEREOF FOR THERAPY OF CHRONIC PAIN, ESPECIALLY MIGRAINE” (priority 2008, dated 2010)
